The values that follow are results of earlier work, collected in patent US9982018B2, “Amatoxin derivatives” ([…] GMBH, priority 2013, dated 2018).

In one data set the target is RNA polymerase II (Homo sapiens, UniProt P24928). The settings on record: read-out: KD of complex with RNA polymerase II.
For data set [1] the following is noted: naturally occurring amatoxin lacking the γ-hydroxyl group.

pKd: −log10 of the molar value.

As a reminder, the pKd is the negative decadic logarithm of the Kd, by convention in mol/L. In the case of amanitin, the pKd on RNA polymerase II was 8.52.

Regarding amanullin, the toxicity result in data set [1] is given as “considerably reduced toxicity”.
